Experimental data: the NIST ThermoML archive (doi:10.1021/je060271a)
Values joined by “and” are separate entries in the source; they are usually repeats but may differ in a detail not shown here. Equal entries are not always repeated.

Conditions: Liquid, Vibrating tube method

CCCCCCCC(=O)OCC(COC(=O)CCCCCCC)(COC(=O)CCCCCCC)COC(=O)CCCCCCC [pentaerythritol tetraoctanoate]
Conditions | mass density
323.16 K, 4757.8 kPa | 943.8 kg/m3
323.16 K, 4775.8 kPa | 944 kg/m3
323.16 K, 4790.7 kPa | 943.8 kg/m3
323.16 K, 4806.4 kPa | 943.9 kg/m3
323.16 K, 4825.1 kPa | 943.9 kg/m3
323.16 K, 4840.2 kPa | 943.9 kg/m3
323.16 K, 4856.4 kPa | 943.9 kg/m3
323.16 K, 4875.1 kPa | 943.9 kg/m3
323.16 K, 5122 kPa | 944.1 kg/m3
323.16 K, 5143.5 kPa | 944.1 kg/m3
323.16 K, 5161 kPa | 944.2 kg/m3
323.16 K, 5179 kPa | 944.2 kg/m3
323.16 K, 5197.1 kPa | 944.1 kg/m3
323.16 K, 5335.6 kPa | 944.3 kg/m3
323.16 K, 5398.2 kPa | 944.3 kg/m3
323.16 K, 5417.6 kPa | 944.3 kg/m3
323.16 K, 5438 kPa | 944.3 kg/m3
323.16 K, 5461.9 kPa | 944.3 kg/m3
323.16 K, 5481.8 kPa | 944.5 kg/m3
323.16 K, 5502.5 kPa | 944.5 kg/m3
323.16 K, 5527.1 kPa | 944.4 kg/m3
323.16 K, 5547.9 kPa | 944.4 kg/m3
323.16 K, 5568.6 kPa | 944.4 kg/m3
323.16 K, 5590.2 kPa | 944.4 kg/m3
323.16 K, 5611.9 kPa | 944.4 kg/m3
323.16 K, 5637.6 kPa | 944.4 kg/m3
323.16 K, 5659.6 kPa | 944.4 kg/m3
323.16 K, 5703.9 kPa | 944.5 kg/m3
323.16 K, 5774.4 kPa | 944.6 kg/m3
323.16 K, 5797.1 kPa | 944.6 kg/m3
323.16 K, 5824.6 kPa | 944.7 kg/m3
323.16 K, 5870.9 kPa | 944.6 kg/m3
323.16 K, 6078.5 kPa | 944.7 kg/m3
323.16 K, 6238.8 kPa | 944.8 kg/m3
323.16 K, 6265.6 kPa | 944.9 kg/m3
323.16 K, 6297.7 kPa | 944.9 kg/m3
323.16 K, 6324.9 kPa | 944.9 kg/m3
323.16 K, 6352.7 kPa | 944.9 kg/m3
323.16 K, 6380.2 kPa | 944.9 kg/m3
323.16 K, 12370 kPa | 948.8 kg/m3
323.16 K, 12396 kPa | 948.8 kg/m3
323.16 K, 12424 kPa | 948.8 kg/m3
323.16 K, 20026 kPa | 953.6 kg/m3
323.16 K, 21868 kPa | 954.6 kg/m3
323.16 K, 21910 kPa | 954.7 kg/m3
323.16 K, 22807 kPa | 955.3 kg/m3
323.16 K, 27149 kPa | 957.8 kg/m3
323.16 K, 27197 kPa | 957.9 kg/m3
323.16 K, 27237 kPa | 957.9 kg/m3
323.16 K, 27277 kPa | 957.9 kg/m3
323.16 K, 27317 kPa | 957.9 kg/m3
323.16 K, 27366 kPa | 957.9 kg/m3
323.16 K, 27451 kPa | 958 kg/m3
323.16 K, 27504 kPa | 958 kg/m3
323.16 K, 27997 kPa | 958.3 kg/m3
323.16 K, 28020 kPa | 958.4 kg/m3
323.16 K, 28046 kPa | 958.3 kg/m3
323.16 K, 28069 kPa | 958.3 kg/m3
343.14 K, 4667.8 kPa | 929.4 kg/m3
343.14 K, 4690.1 kPa | 929.4 kg/m3
343.14 K, 8016.3 kPa | 931.8 kg/m3
343.14 K, 8048.6 kPa | 931.8 kg/m3
343.14 K, 8086.2 kPa | 932 kg/m3
343.14 K, 8118.6 kPa | 931.9 kg/m3
343.14 K, 8397.9 kPa | 932.1 kg/m3
343.14 K, 8438.9 kPa | 932.1 kg/m3
343.14 K, 8473.8 kPa | 932.1 kg/m3
343.14 K, 8822.1 kPa | 932.4 kg/m3
343.14 K, 8860.4 kPa | 932.5 kg/m3
343.14 K, 8906.8 kPa | 932.5 kg/m3
343.14 K, 8945 kPa | 932.5 kg/m3
343.14 K, 9418.7 kPa | 932.8 kg/m3
343.14 K, 10399 kPa | 933.5 kg/m3
343.14 K, 11681 kPa | 934.4 kg/m3
343.14 K, 13765 kPa | 935.9 kg/m3
343.14 K, 16874 kPa | 938 kg/m3
343.14 K, 17179 kPa | 938.2 kg/m3
343.14 K, 17211 kPa | 938.2 kg/m3
343.14 K, 17250 kPa | 938.2 kg/m3
343.14 K, 17283 kPa | 938.3 kg/m3
343.14 K, 17315 kPa | 938.2 kg/m3
343.14 K, 20086 kPa | 940.3 kg/m3
343.14 K, 20133 kPa | 940.1 kg/m3
343.14 K, 20456 kPa | 940.4 kg/m3
343.14 K, 20478 kPa | 940.5 kg/m3
343.14 K, 20501 kPa | 940.3 kg/m3
343.14 K, 22979 kPa | 942 kg/m3
343.14 K, 24214 kPa | 942.8 kg/m3
343.14 K, 26657 kPa | 944.4 kg/m3
343.14 K, 30407 kPa | 946.7 kg/m3
343.14 K, 30444 kPa | 946.7 kg/m3
343.14 K, 30488 kPa | 946.6 kg/m3
343.14 K, 30968 kPa | 947 kg/m3
343.14 K, 32801 kPa | 948 kg/m3
343.15 K, 105.1 kPa | 926 kg/m3
343.15 K, 105.3 kPa | 926.1 kg/m3 and 926 kg/m3 and 926.2 kg/m3
343.15 K, 105.5 kPa | 926 kg/m3
343.15 K, 105.6 kPa | 925.9 kg/m3
343.15 K, 106 kPa | 926.1 kg/m3
343.15 K, 108.9 kPa | 926 kg/m3
343.15 K, 123.5 kPa | 926.1 kg/m3
343.15 K, 154.3 kPa | 926 kg/m3
343.15 K, 224 kPa | 926.1 kg/m3
343.15 K, 227.5 kPa | 926.1 kg/m3
343.15 K, 231.8 kPa | 926 kg/m3
343.15 K, 235.3 kPa | 926.1 kg/m3
343.15 K, 239.5 kPa | 926.1 kg/m3
343.15 K, 243.8 kPa | 926.3 kg/m3
343.15 K, 248 kPa | 926.2 kg/m3
343.15 K, 253 kPa | 926.2 kg/m3
343.15 K, 257.4 kPa | 926.1 kg/m3
343.15 K, 262.8 kPa | 926.2 kg/m3
343.15 K, 268.2 kPa | 926.1 kg/m3
343.15 K, 273.2 kPa | 926.1 kg/m3
343.15 K, 279.6 kPa | 926.1 kg/m3
343.15 K, 285.2 kPa | 926.2 kg/m3
343.15 K, 292.1 kPa | 926.2 kg/m3
343.15 K, 299.6 kPa | 926.2 kg/m3
343.15 K, 305.7 kPa | 926.2 kg/m3
343.15 K, 313.9 kPa | 926.1 kg/m3
343.15 K, 321 kPa | 926.1 kg/m3
343.15 K, 329.7 kPa | 926.3 kg/m3
343.15 K, 338 kPa | 926.3 kg/m3
343.15 K, 347.9 kPa | 926.2 kg/m3
343.15 K, 358.4 kPa | 926.1 kg/m3
343.15 K, 367.9 kPa | 926.2 kg/m3
343.15 K, 379.9 kPa | 926.1 kg/m3
343.15 K, 392.9 kPa | 926.3 kg/m3
343.15 K, 404.2 kPa | 926 kg/m3
343.15 K, 419.5 kPa | 926.3 kg/m3
343.15 K, 433.8 kPa | 926.1 kg/m3
343.15 K, 449.4 kPa | 926.1 kg/m3
343.15 K, 460.9 kPa | 926.1 kg/m3
343.15 K, 471.1 kPa | 926.2 kg/m3
343.15 K, 480.2 kPa | 926.3 kg/m3
343.15 K, 491.8 kPa | 926.5 kg/m3
343.15 K, 504 kPa | 926.2 kg/m3
343.15 K, 514.2 kPa | 926.3 kg/m3
343.15 K, 527.6 kPa | 926.3 kg/m3
343.15 K, 538.9 kPa | 926.2 kg/m3
343.15 K, 553.3 kPa | 926.3 kg/m3
343.15 K, 568.4 kPa | 926.4 kg/m3
343.15 K, 582.5 kPa | 926.4 kg/m3
343.15 K, 596.2 kPa | 926.4 kg/m3
343.15 K, 613.8 kPa | 926.4 kg/m3
343.15 K, 632.2 kPa | 926.4 kg/m3
343.15 K, 648.4 kPa | 926.4 kg/m3
